Measured values published in patent publication EP3925949A1, “AZIDO COMPOUNDS AND METHOD FOR MONITORING ACID CERAMIDASE ACTIVITY IN INTACT CELLS USING THEM” (Consejo Superior de Investigaciones Científicas (CSIC), priority 2020, dated 2021).

What was measured:
ACER3 = target: T1, ACER3 (Mus musculus, UniProt Q9D099); assay: Hydrolysis of RBM5-177 by microsomes of ACER3 overexpressing cells, UPLC-HRMS; type: biochemical; conditions: microsomes from ACER3 overexpressing cells, RBM5-177 5 µM, 30 min
T1 construct: endogenous in cells; host or cells: MEF5 cells (NC-deficient)
T1 sequence (Q9D099 1-267): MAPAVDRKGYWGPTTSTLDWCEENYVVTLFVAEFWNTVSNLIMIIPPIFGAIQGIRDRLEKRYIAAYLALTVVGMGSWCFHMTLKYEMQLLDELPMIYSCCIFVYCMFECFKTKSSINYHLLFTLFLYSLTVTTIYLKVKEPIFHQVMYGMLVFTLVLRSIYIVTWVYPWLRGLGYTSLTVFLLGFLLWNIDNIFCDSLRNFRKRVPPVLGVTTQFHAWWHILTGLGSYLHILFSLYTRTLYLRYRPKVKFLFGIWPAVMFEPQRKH
Method: Cell lysates obtained from HeLa T-Rex ACER1-TET-ON, HeLa T-Rex ACER2-TET-ON and MEF5 overexpressing ACER3 cells were transferred to ultracentrifuge tubes and were spun at 100000 g for 1 h at 4°C. Pellets were resuspended in a 0.25 M saccharose solution and protein concentration was determined as specified below.
Cells were seeded at 5 × 10^5 cells/mL into 6 well plates (1 mL/well) and were allowed to adhere for 24 h. Medium was replaced with fresh medium containing RBM5-177, RBM5-019 or RBM2-37 (5 µM final concentration). After 30 min, medium was removed; cells were washed with 400 µL PBS and harvested with 400 µL Trypsin-EDTA and 600 µL of medium. NC recombinant enzyme, lysates from A375-AC overexpressing cells, MEF5 or microsomes from HeLa T-Rex ACER1-TET-ON and HeLa T-Rex […] activity buffer. Cell pellets were resuspended with 100 µL of H2O and mixed with 750 µL of methanol: chloroform, 2:1. Samples were heated at 48°C overnight and next day, 75 µL of 1 M KOH in methanol were added, followed by 2 h incubation at 37°C. Afterwards, the saponification was neutralised with 75 µL of 1 M acetic acid and solvent was removed using a Speed Vac Savant SPD131 DDA (Thermo Scientific). […]

acid ceramidase (AC) = target: T2, acid ceramidase (AC) (Homo sapiens, UniProt Q13510); assay: AC activity-dependence of labelling (fluorescence confocal microscopy); type: cell-based; set-up: expressed in transfected cells; host or cells: FD/AC (overexpressing AC); conditions: FD/AC cells, SOCLAC 5 µM 1 h pretreatment, RBM5-177 5 µM 4 h
T2 sequence (Q13510 143-395 limits assumed): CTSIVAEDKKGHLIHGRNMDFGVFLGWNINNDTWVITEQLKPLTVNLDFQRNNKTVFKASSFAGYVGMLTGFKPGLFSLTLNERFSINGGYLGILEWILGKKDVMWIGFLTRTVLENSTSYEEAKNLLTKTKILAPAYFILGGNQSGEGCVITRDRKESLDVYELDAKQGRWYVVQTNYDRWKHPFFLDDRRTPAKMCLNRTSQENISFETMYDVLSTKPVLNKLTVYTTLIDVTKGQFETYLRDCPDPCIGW
T2 sequence (Q13510 22-142 limits assumed): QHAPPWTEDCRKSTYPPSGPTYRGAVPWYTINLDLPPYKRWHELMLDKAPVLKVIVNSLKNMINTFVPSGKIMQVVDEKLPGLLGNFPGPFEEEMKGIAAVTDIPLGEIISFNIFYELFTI
Method: Cells were seeded at 1 × 10^5 cells/mL on glass-bottom plates and allowed to adhere for 24 h. For golgi staining, cells were incubated with 40 µL/well of CellLight Golgi-RFP BacMam 2.0 for 24 h. […] After this time, the medium was replaced with fresh medium containing CO-1 (1 µM final concentration), and cells were incubated for 10 min. Then cells were washed 3 times with DMEM for 5 min at 37 °C, 75 nM LysoTracker Red DND-99 or 75 nM Mitotracker in phenol red-free DMEM was added to stain lysosomes or mitochondria, and cells were kept in the incubator for microscope analysis. Staining was viewed with a Zeiss LSM 880 confocal microscope or Leica TCS SP8-Hyvolution. Image analysis was performed using Fiji software.^[7] To measure the Manders's and Pearson's coefficients a threshold including organelles and discarding the background was set. Co-localization coefficients were measured using the JaCoP plugin (S. Bolte et al. J. Microsc. 2006, 224, 213-232) on the different stacks of images (at least n=4) with each stack containing 3-10 cells.

mitochondria = assay: Confocal co-localization of probe/CO-1 staining with Mitotracker; type: cell-based; conditions: A375/+Dox, RBM5-177 probe, FB1 100 µM 24 h or SOCLAC 5 µM 1 h, independent treatments
Method: Cells were seeded at 1 × 10^5 cells/mL on glass-bottom plates and allowed to adhere for 24 h. For golgi staining, cells were incubated with 40 µL/well of CellLight Golgi-RFP BacMam 2.0 for 24 h. Medium was replaced with fresh medium containing RBM5-177, RBM5-019, RBM2-37 or RBM2-31 (5 µM final concentration) and cells were incubated for 20 min at 37 °C. After this time, the medium was replaced with fresh medium containing CO-1 (1 µM final concentration), and cells were incubated for 10 min. Then cells were washed 3 times with DMEM for 5 min at 37 °C, 75 nM LysoTracker Red DND-99 or 75 nM Mitotracker in phenol red-free DMEM was added to stain lysosomes or mitochondria, and cells were kept in the incubator for microscope analysis. Staining was viewed with a Zeiss LSM 880 confocal microscope or Leica TCS SP8-Hyvolution. Image analysis was performed using Fiji software.^[7] To measure the Manders's and Pearson's coefficients a threshold including organelles and discarding the background was set. Co-localization coefficients were measured using the JaCoP plugin (S. Bolte et al. J. Microsc. 2006, 224, 213-232) on the different stacks of images (at least n=4) with each stack containing 3-10 cells.

## CCCCCCCC(=O)N[C@@H](C)[C@H](O)CCCCCCCCCCCCN=[N+]=[N-] [RBM5-177, N-((2S,3R)-15-azido-3-hydroxypentadecan-2-yl)octanamide]
ACER3
  RBM5-19 formation (hydrolysis as substrate): transformed into the free amine only by AC

## CCCCCCCCCCCCC/C=C/[C@@H](O)[C@H](CO)NC(=O)CCl [SOCLAC]
Acid ceramidase (AC)
  effect on lysosome labelling by RBM5-177/CO-1: no lysosomal labelling occurred
mitochondria
  effect on mitochondria labelling: mitochondria labelling was precluded
